Test results: patent US12594268B2, “Methods of treating Fabry disease in patients having a mutation in the GLA gene” (Amicus Therapeutics, Inc., priority 2018, dated 2026)
Changes are numbered by the printed parent chain.

What was measured:
Assay type in all cases: cell-based
[1] = target: T1, α-Gal A mutant form P259Q (Homo sapiens, UniProt P06280, P259Q); assay: α-Gal A activity in lysates of transfected HEK-293 cells, P259Q
T1 construct: expressed in transfected cells; host or cells: HEK-293
T1 sequence (P06280 32-429 P259Q): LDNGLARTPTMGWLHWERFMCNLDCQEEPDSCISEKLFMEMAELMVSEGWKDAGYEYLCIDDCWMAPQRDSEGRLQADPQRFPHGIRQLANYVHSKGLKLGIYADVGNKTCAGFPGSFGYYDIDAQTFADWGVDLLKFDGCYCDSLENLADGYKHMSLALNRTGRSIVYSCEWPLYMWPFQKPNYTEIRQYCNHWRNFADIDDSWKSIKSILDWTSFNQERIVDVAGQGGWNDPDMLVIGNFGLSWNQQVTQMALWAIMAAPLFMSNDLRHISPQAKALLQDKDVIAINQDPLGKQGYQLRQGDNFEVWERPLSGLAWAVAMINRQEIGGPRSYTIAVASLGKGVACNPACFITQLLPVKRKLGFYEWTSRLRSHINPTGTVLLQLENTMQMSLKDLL
Method: (§1) Baseline and 10 μM migalastat α-Gal A activity: Differences in the α-Gal A activity between lysates incubated in the absence and presence of 10 μM migalastat were determined using a one-tailed, Mann Whitney U test; an increase at 10 μM migalastat with a p<0.05 was considered significant.
(§2) 10 μM migalastat α-Gal A activity (% WT)=(α-Gal A activity in mutant transfected cell lysates incubated with 10 μM migalastat÷α-Gal A activity in wild-type transfected cell lysates without migalastat)*100.
(§3) Absolute increase (% WT)=is the 10 μM migalastat α-Gal A activity (% WT) minus the baseline α-Gal A activity (% WT).
(§4) Relative increase is the 10 μM migalastat α-Gal A activity in mutant transfected cell lysates÷baseline α-Gal A activity in mutant transfected cell lysates incubated without migalastat.

[2] = target: T2, α-Gal A mutant form N228D (Homo sapiens, UniProt P06280, N228D); assay: α-Gal A activity in lysates of transfected HEK-293 cells, N228D
T2 construct: expressed in transfected cells; host or cells: HEK-293
T2 sequence (P06280 32-429 N228D): T1 sequence (P06280 32-429 P259Q) with N197D, Q228P
Method: as §1, §2, §3, §4

[3] = target: T3, α-Gal A mutant form W204G (Homo sapiens, UniProt P06280, W204G); assay: α-Gal A activity in lysates of transfected HEK-293 cells, W204G
T3 construct: expressed in transfected cells; host or cells: HEK-293
T3 sequence (P06280 32-429 W204G): T1 sequence (P06280 32-429 P259Q) with W173G, Q228P
Method: as §1, §2, §3, §4

[4] = target: T4, α-Gal A mutant form D155E (Homo sapiens, UniProt P06280, D155E); assay: α-Gal A activity in lysates of transfected HEK-293 cells, D155E
T4 construct: expressed in transfected cells; host or cells: HEK-293
T4 sequence (P06280 32-429 D155E): T1 sequence (P06280 32-429 P259Q) with D124E, Q228P
Method: as §1, §2, §3, §4

[5] = target: T5, α-Gal A mutant form G80V (Homo sapiens, UniProt P06280, G80V); assay: α-Gal A activity in lysates of transfected HEK-293 cells, G80V
T5 construct: expressed in transfected cells; host or cells: HEK-293
T5 sequence (P06280 32-429 G80V): T1 sequence (P06280 32-429 P259Q) with G49V, Q228P
Method: as §1, §2, §3, §4

[6] = 10 μM migalastat minus baseline
[7] = 10 μM migalastat ÷ baseline activity
[8] = HEK-293 lysates, 10 μM migalastat, 5 days, mean ± SEM

For OC[C@H]1NC[C@H](O)[C@@H](O)[C@H]1O [migalastat, (2R,3S,4R,5S)-2-(hydroxymethyl) piperdine-3,4,5-triol], which “Absolute increase (% WT)” value [1, 6] is on record?
Its value is 36.1 % WT.

And the Relative increase [1, 7]?
Its Relative increase is 1.90.

What about the “10 μM migalastat α-Gal A activity” value [1, 8] of the same compound?
Its value is 25935 ± 2020 nmol/mg/h.

What about the “10 μM migalastat α-Gal A activity (% WT)” value [1, 8] of the same compound?
The value was 73.6 ± 5.0 % WT.

And the “Absolute increase (% WT)” value [2, 6]?
Its value is 48.2 % WT.

What about the Relative increase [2, 7] of the same compound?
Its Relative increase is 4.12.

What about the “10 μM migalastat α-Gal A activity” value [2, 8] of the same compound?
The value was 25816 ± 2273 nmol/mg/h.

What about the “10 μM migalastat α-Gal A activity (% WT)” value [2, 8] of the same compound?
Its value is 63.2 ± 5.4 % WT.

And the “Absolute increase (% WT)” value ([3]; 10 μM migalastat minus baseline (baseline BLD))?
Its value is 6.5 % WT.

And the “10 nM migalastat α-Gal A activity” value ([3]; HEK-293 lysates, 10 nM migalastat as printed, 5 days, mean ± SEM, baseline BLD)?
The value was 1695 ± 198 nmol/mg/h.

And the “10 μM migalastat α-Gal A activity (% WT)” value [3, 8]?
The value was 6.5 ± 0.7 % WT.

What about the “Absolute increase (% WT)” value [4, 6] of the same compound?
The value was 14.5 % WT.

And the Relative increase [4, 7]?
Its Relative increase is 3.81.

And the “10 μM migalastat α-Gal A activity” value [4, 8]?
The value was 6619 ± 337 nmol/mg/h.

And the “10 μM migalastat α-Gal A activity (% WT)” value [4, 8]?
The value was 19.8 ± 1.0 % WT.

And the “Absolute increase (% WT)” value [5, 6]?
Its value is 4.3 % WT.

And the Relative increase [5, 7]?
Its Relative increase is 3.18.

What about the “10 μM migalastat α-Gal A activity” value [5, 8] of the same compound?
The value was 2434 ± 333 nmol/mg/h.

And the “10 μM migalastat α-Gal A activity (% WT)” value [5, 8]?
Its value is 6.4 ± 0.6 % WT.
